{"source": "patent US20030203890A1", "about": "(priority 2001, published 2003)", "key": {"[1]": {"system": "cavernous nerve", "assay": "Intracavernosal pressure (ICP) response to electrostimulation after cavernous nerve crush injury", "type": "in vivo, Sprague-Dawley rats", "conditions": "for ICP response, Control side: control (intact) side; for ICP response, Control side / ICP response, Crush side: 1 day following R-cavernous nerve crush, i.p., FK506 1 mg/kg, Compound 153 15 mg/kg, +/- sem; for ICP response, Crush side: crush (injured) side", "experimental": "(§1) Cavernous nerve injury was performed in 12 week old Sprague-Dawley rats by crushing the right cavernous nerve for 3×15 seconds with a fine tip forceps. The rats were treated with saline or Compound 153 (15 mg/kg i.p.) just prior to nerve crush. The right and left major pelvic ganglia were processed for nNOS immunoreactivity. Intracavernosal pressure (ICP) responses to electrostimulation of the right (injured) and left (intact) cavernous nerves were recorded for each animal at 24 hours or 7 days post injury."}, "[2]": {"system": "sciatic nerve", "conditions": "rats with crushed sciatic nerves; Gold et al. 1994/1995, Steiner et al. 1997; cited from earlier work"}, "[3]": {"target": "FKBP12 (Homo sapiens, UniProt P62942)", "sequence (P62942 whole entry, species assumed)": "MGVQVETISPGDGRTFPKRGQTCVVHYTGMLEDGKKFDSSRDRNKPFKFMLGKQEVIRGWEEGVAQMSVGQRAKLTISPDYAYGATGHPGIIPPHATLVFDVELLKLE", "assay": "K1 test procedure: inhibition of peptidyl-prolyl isomerase (rotamase) activity of FKBP12, chymotrypsin-coupled assay", "type": "biochemical", "experimental": "The inhibition of the prolyl peptidyl cis-trans isomerase activity of FKBP may be measured as an indicator of this affinity.\nThe cis-trans isomerization of an alanine-proline bond in a model substrate, N-succinyl-Ala-Ala-Pro-Phe-p-nitroanilide, is monitored spectrophotometrically in a chymotrypsin-coupled assay, which releases paranitroanilide from the trans form of the substrate. The inhibition of this reaction caused by the addition of different concentrations of inhibitor is determined, and the data is analyzed as a change in first-order rate constant as a function of inhibitor concentration to yield the apparent K1 values.\nIn a plastic cuvette are added […] of ice cold assay buffer (25 mM HEPES, pH 7.8, 100 mM NaCl), […] of FKBP (2.5 mM in 10 mM Tris-Cl pH 7.5, 100 mM NaCl, 1 mM dithiothreitol), […] of chymotrypsin (50 mg/ml in 1 mM HCl) and […] of test compound at various concentrations in dimethyl sulfoxide."}, "[4]": {"system": "major pelvic ganglia", "assay": "Cresyl Violet staining of right and left major pelvic ganglia after cavernous nerve crush", "type": "in vivo, Sprague-Dawley rats", "conditions": "FIG. 2; rat right cavernous nerve crush"}, "[5]": {"system": "major pelvic ganglia", "assay": "nNOS immunoreactivity of right and left major pelvic ganglia after cavernous nerve crush", "type": "in vivo, Sprague-Dawley rats", "conditions": "FIG. 1; rat right cavernous nerve crush; 15 mg/kg i.p. just prior to nerve crush", "experimental": "as §1"}, "[6]": {"conditions": "apparent Ki, rotamase inhibition, Table XLI, Formulas I to XIV, read-out: Ki"}, "[7]": {"conditions": "relative potency ranking, Table XLII, Formulas XV to XXIV, read-out: Ki"}, "[8]": {"conditions": "apparent Ki, rotamase inhibition, Table XLIII, Formulas XXV to XXIX, read-out: K1"}}, "note": "pKi: −log10 of the molar value. Where two headings read alike, the source gives them in different places.", "data": [{"smiles": "C=CC[C@@H]1/C=C(\\C)C[C@H](C)C[C@H](OC)[C@H]2O[C@@](O)(C(=O)C(=O)N3CCCC[C@H]3C(=O)O[C@H](/C(C)=C/[C@@H]3CC[C@@H](O)[C@H](OC)C3)[C@H](C)[C@@H](O)CC1=O)[C@H](C)C[C@@H]2OC", "note": "[FK506, reference compound]", "values": [{"measurement": "ICP response, Control side", "setting": "[1]", "value": "36.9 +/− 7.7"}, {"measurement": "ICP response, Crush side", "setting": "[1]", "value": "32.0 +/− 6.7"}]}, {"smiles": "CC[C@@H]1/C=C(\\C)[C@@H](O)[C@H](C)C[C@H](OC)[C@H]2O[C@@](O)(C(=O)C(=O)N3CCCC[C@H]3C(=O)O[C@H](/C(C)=C/[C@@H]3CC[C@@H](O)[C@H](OC)C3)[C@H](C)[C@@H](O)CC1=O)[C@H](C)C[C@@H]2OC", "note": "[L-685,818]", "values": [{"measurement": "nerve regeneration and morphological/functional recovery following sciatic nerve crush", "setting": "[2]", "value": "as effective as FK506"}]}, {"smiles": "O=C(C(=O)N1CCC[C@H]1C(=O)SCCCCc1ccccc1)C1CCCCC1", "note": "[compound 33]", "values": [{"measurement": "pKi", "setting": "[3]; [6]", "value": 5.77}]}, {"smiles": "CCC(C)(C)C(=O)C(=O)N1CCC[C@H]1C(=O)SCCCc1cccc2ccccc12", "note": "[compound 47]", "values": [{"measurement": "pKi", "setting": "[3]; [6]", "value": 7.68}]}, {"smiles": "CCC(C)(C)C(=O)C(=O)N1CCC[C@H]1C(=O)OCCCc1ccc[n+]([O-])c1", "note": "[compound 95]", "values": [{"measurement": "pKi", "setting": "[3]; [6]", "value": 6.65}]}, {"smiles": "CCC(C)CNC(=O)N1CCC[C@H]1C(=O)SCCCc1cccnc1", "note": "(stereo partly drawn) [compound 101, 3-(3-Pyridyl)-1-propylmercaptyl 2S-1-[(2-methylbutyl)carbamoyl]pyrrolidine-2-carboxylate]", "values": [{"measurement": "pKi", "setting": "[3]; [7]", "value": "7.30 to 9.00"}]}, {"smiles": "CCC(C)(C)NC(=O)N1CCC[C@H]1C(=O)SCCCc1cccnc1", "note": "[compound 102]", "values": [{"measurement": "pKi", "setting": "[3]; [7]", "value": "6.70 to 7.29"}]}, {"smiles": "COc1ccc(CCCSC(=O)C2CCCN2C(=S)NC2CCCCC2)cc1", "note": "(stereo not shown) [compound 105]", "values": [{"measurement": "pKi", "setting": "[3]; [7]", "value": "6.70 to 7.29"}]}, {"smiles": "CCC(C)(C)NC(=S)N1CCCC1C(=O)SCCCc1cccnc1", "note": "(stereo not shown) [compound 109]", "values": [{"measurement": "pKi", "setting": "[3]; [7]", "value": "7.30 to 9.00"}]}, {"smiles": "CCC(C)(C)NC(=O)N1CCCC1C(=O)SCCC(c1ccccc1)c1ccccc1", "note": "(stereo not shown) [compound 110]", "values": [{"measurement": "pKi", "setting": "[3]; [7]", "value": "7.30 to 9.00"}]}, {"smiles": "O=C(SC(CCc1ccccc1)CCc1ccccc1)C1CCCCN1C(=O)NC1CCCCC1", "note": "(stereo not shown) [compound 114]", "values": [{"measurement": "pKi", "setting": "[3]; [7]", "value": "7.30 to 9.00"}]}, {"smiles": "COc1ccc(CCCSC(=O)[C@@H]2CCCN2S(=O)(=O)c2ccccc2)cc1", "note": "[compound 120, 3-(para-Methoxyphenyl)-1-propylmercaptyl(2S)-N-(benzenesulfonyl)pyrrolidine-2-carboxylate]", "values": [{"measurement": "pKi", "setting": "[3]; [7]", "value": "6.70 to 7.29"}]}, {"smiles": "COc1ccc(CCCSC(=O)[C@@H]2CCCN2S(=O)(=O)Cc2ccccc2)cc1", "note": "[compound 121, 3-(para-Methoxyphenyl)-1-propylmercaptyl(2S)-N-(a-toluenesulfonyl)pyrrolidine-2-carboxylate]", "values": [{"measurement": "pKi", "setting": "[3]; [7]", "value": "6.70 to 7.29"}]}, {"smiles": "COc1ccc(CCCSC(=O)[C@@H]2CCCN2S(=O)(=O)c2ccc(C)cc2)cc1", "note": "[compound 122, 3-(para-Methoxyphenyl)-1-propylmercaptyl(2S)-N-(a-toluenesulfonyl)pyrrolidine-2-carboxylate]", "values": [{"measurement": "pKi", "setting": "[3]; [7]", "value": "6.30 to 6.70"}]}, {"smiles": "CCC(C)(C)C(=O)C(=O)N1CCC[C@H]1C(=O)OC/C=C/c1cc(OC)ccc1OC", "note": "[compound 151, 3-(2,5-dimethoxyphenyl)-1-prop-2-(E)-enyl (2S)-1-(3,3-dimethyl-1,2-dioxopentyl)-2-pyrrolidine-carboxylate]", "values": [{"measurement": "pKi", "setting": "[3]; [8]", "value": 6.35}]}, {"smiles": "CCC(C)(C)C(=O)C(=O)N1CCC[C@H]1C(=O)OCCCc1cccnc1", "note": "[compound 153, 3-(3-Pyridyl)-1-propyl (2S)-1-(3,3-dimethyl-1,2-dioxopentyl)-2-pyrrolidinecarboxylate]", "values": [{"measurement": "effect of administration on crushed cavernous nerves", "setting": "[1]; Example 30, rats, 15 mg/kg i.p. just prior to nerve crush", "value": "regenerate the penile cavernous nerve"}, {"measurement": "ICP response, Control side", "setting": "[1]", "value": "42.8 +/− 1.9"}, {"measurement": "ICP response, Crush side", "setting": "[1]", "value": "42.7 +/− 2.2"}, {"measurement": "effect on the right and left major pelvic ganglia as processed for Cresyl Violet staining", "setting": "[4]", "value": "protective effect"}, {"measurement": "effect on the right and left major pelvic ganglia as processed for nNOS immunoreactivity", "setting": "[5]", "value": "protective effect"}]}, {"smiles": "CC1(C)COC(=O)CCCCCCCCCCCOC(=O)[C@@H]2CCCCN2C(=O)C1=O", "note": "[compound 186, (24aS)-17,17-dimethylperhydropyrido[2,1-c] [1,9,4]dioxazacyclohenicosine-1,14,18,19-tetraone]", "values": [{"measurement": "pKi", "setting": "[3]; [8]", "value": 6.82}]}]}
